Test results reported in ChEMBL document CHEMBL3045483, “Chalcones as promising pesticidal agents against diamondback moth (Plutella xylostella): microwave-assisted synthesis and structureactivity relationship” (Med Chem Res, 2012).
In brackets after ≈: the same amount, converted by molar mass.

How the values were obtained:
[1] = tested on: Plutella xylostella; test: Insecticidal activity against second-instar larvae Plutella xylostella (diamondback moth) in compound treated cabbage leaves assessed as mortality at 5000 ug/mL after 48 hr by leaf dip method; format: functional; conditions: foliar
[2] = tested on: Plutella xylostella; test: Insecticidal activity against second-instar larvae Plutella xylostella (diamondback moth) in compound treated cabbage leaves assessed as mortality at 10000 ug/mL after 48 hr by leaf dip method; format: functional; conditions: foliar
[3] = tested on: Plutella xylostella; test: Insecticidal activity against second-instar larvae Plutella xylostella (diamondback moth) in compound treated cabbage leaves assessed as mortality after 48 hr by leaf dip method; format: functional; conditions: foliar
[4] = Aqueous solubility of the compound; format: physicochemical; conditions: buffer

Row | solubility [4] | SMILES | mortality at 5000 µg/mL [1] | mortality at 10000 µg/mL [2] | LC50 [3]
1 | – | COc1cc(OC)c(OC)cc1/C=C/C(C)=O | 0% | 26.6% | –
2 | – | C=CCOc1ccc(C(=O)/C=C/c2ccc(Cl)cc2)cc1 | 100% | 100% | 268 µg/mL (≈ 898 µM)
3 | Insoluble | COc1ccc(C(=O)/C=C/c2cccc3ccccc23)cc1 | – | – | –
4 | – | COc1ccc(/C=C/C(C)=O)cc1 | 26.6% | 30% | –
5 | – | Cc1ccc(C(=O)/C=C/c2ccc(Cl)c(Cl)c2)cc1 | 60% | 83.3% | –
6 | Insoluble | COc1cccc(C(=O)/C=C/c2ccc(Cl)c(Cl)c2)c1 | – | – | –
7 | – | COc1ccc(/C=C/C(=O)c2ccc(OC)cc2)cc1 [4,4'-DIMETHOXYCHALCONE] | 16.6% | 26.6% | –
8 | – | O=C(/C=C/c1ccc(Cl)cc1)c1ccc(Cl)cc1 [4',4-DICHLOROCHALCONE] | 100% | 100% | 170 µg/mL (≈ 614 µM)
9 | – | COc1ccccc1C(=O)/C=C/c1ccc(Cl)c(Cl)c1 | 50% | 63.3% | –
10 | – | O=C(/C=C/c1ccc(Cl)c(Cl)c1)c1ccc(Cl)cc1 | 60% | 97.7% | –
11 | – | O=C(/C=C/c1ccc(Cl)c(Cl)c1)c1ccc(Cl)c(Cl)c1 | 46.6% | 73.3% | –
12 | – | COc1ccc(C(=O)/C=C/c2ccc(Cl)c(Cl)c2)cc1OC | 46.6% | 68% | –
13 | Insoluble | COc1cc(/C=C/C(C)=O)ccc1O [DEHYDROZINGERONE] | – | – | –
14 | – | O=C(/C=C/c1ccco1)c1ccc([N+](=O)[O-])cc1 | 16.6% | 23% | –
15 | – | COc1ccc(C(=O)/C=C/c2ccc(Br)cc2)cc1 | 3.3% | 10% | –
16 | – | O=C(/C=C/c1ccc(Cl)cc1)c1ccc2c(c1)OCO2 | 13.3% | 23% | –
17 | – | CC1(C)[C@H](C(=O)O[C@H](C#N)c2cccc(Oc3ccccc3)c2)[C@@H]1C=C(Br)Br [DELTAMETHRIN] | – | – | 6.25 µg/mL (≈ 12.4 µM)
18 | – | O=C(/C=C/c1cccs1)c1ccc([N+](=O)[O-])cc1 | 23.3% | 30% | –
19 | – | COc1ccc(/C=C/C(=O)c2ccc(Cl)cc2)cc1 | 26.6% | 50% | –
20 | – | COc1ccc(C(=O)/C=C/c2ccc(Cl)cc2)cc1 | 100% | 100% | 356 µg/mL (≈ 1310 µM)
21 | Insoluble | COc1cc(C(=O)/C=C/c2ccc(Cl)c(Cl)c2)cc(OC)c1OC | – | – | –
22 | – | O=C(/C=C/c1ccc(Cl)cc1)c1ccc(O)cc1 | 100% | 100% | 871 µg/mL (≈ 3370 µM)
23 | – | COc1ccc(C(=O)/C=C/c2ccc(Cl)c(Cl)c2)cc1 | 100% | 100% | 288 µg/mL (≈ 936 µM)
24 | – | COc1ccc(C(=O)/C=C/c2ccc(Cl)cc2Cl)cc1 | 100% | 100% | 278 µg/mL (≈ 907 µM)
25 | – | COc1ccc(C(=O)/C=C/c2ccc(F)cc2)cc1 | 26.6% | 33.3% | –
26 | – | O=C(/C=C/c1ccc(Cl)cc1)c1ccc([N+](=O)[O-])cc1 | 20% | 26.6% | –
